Results taken from ChEMBL document CHEMBL1201862, “PubChem BioAssay data set” (2004).
Active and inactive are the calls of the source.

Columns and labels:
[1] = inhibitors of SNCA 5'UTR-driven reporter translation, confirmation, H4 neuroglioma cells, luminescence (AID 1988); format: functional, cell-based
[2] = Luminescence Cell-Based Dose Response HTS to Identify Inhibitors of 5'UTR Stem-Loop Driven Prion Protein mRNA Translation in H4 Neuroglioblastoma Cells. [Related pubchem assays: 1827 (Project Summary), 1813 (Primary HTS)]; format: functional
[3] = inhibitors of firefly luciferase expression or activity, dose response, H4 neuroglioma cells, luminescence (AID 1990); format: functional, cell-based
Protein RecA = biological target: T1, Protein RecA (Mycobacterium tuberculosis, UniProt P9WHJ3); test: Fluorescence Cell-Free Homogeneous Dose Retest to Identify Inhibitors of RecA-Intein Splicing Activity. [Related pubchem assays (depositor defined):AID2097, AID2223, AID489010, AID492950]; format: functional
T1 sequence (P9WHJ3 whole entry): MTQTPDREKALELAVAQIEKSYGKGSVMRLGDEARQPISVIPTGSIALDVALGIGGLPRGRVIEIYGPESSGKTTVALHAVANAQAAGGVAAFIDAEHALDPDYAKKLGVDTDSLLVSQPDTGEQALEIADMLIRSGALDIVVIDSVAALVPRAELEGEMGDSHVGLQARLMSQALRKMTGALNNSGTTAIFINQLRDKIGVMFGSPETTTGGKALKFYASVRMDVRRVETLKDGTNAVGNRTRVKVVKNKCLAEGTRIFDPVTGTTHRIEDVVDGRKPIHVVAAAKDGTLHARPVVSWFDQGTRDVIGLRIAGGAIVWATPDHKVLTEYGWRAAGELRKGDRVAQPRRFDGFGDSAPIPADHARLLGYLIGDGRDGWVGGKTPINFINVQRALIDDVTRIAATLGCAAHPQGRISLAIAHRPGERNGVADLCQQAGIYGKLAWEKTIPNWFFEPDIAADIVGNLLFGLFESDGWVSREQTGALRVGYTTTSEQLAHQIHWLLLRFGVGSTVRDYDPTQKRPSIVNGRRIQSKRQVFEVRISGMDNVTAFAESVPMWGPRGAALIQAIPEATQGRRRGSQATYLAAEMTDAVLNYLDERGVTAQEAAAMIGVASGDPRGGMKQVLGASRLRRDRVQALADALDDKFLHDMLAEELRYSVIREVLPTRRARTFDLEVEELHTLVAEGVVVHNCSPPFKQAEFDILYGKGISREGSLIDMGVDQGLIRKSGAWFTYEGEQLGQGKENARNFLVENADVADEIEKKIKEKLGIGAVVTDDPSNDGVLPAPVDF

[4] = biological target: T2, Replicative DNA helicase DnaB (Mycobacterium tuberculosis, UniProt P9WMR3); test: DnaB intein splicing inhibitors, dose response, biochemical, cell-free fluorescence (AID 449749); format: functional
T2 sequence (P9WMR3 whole entry): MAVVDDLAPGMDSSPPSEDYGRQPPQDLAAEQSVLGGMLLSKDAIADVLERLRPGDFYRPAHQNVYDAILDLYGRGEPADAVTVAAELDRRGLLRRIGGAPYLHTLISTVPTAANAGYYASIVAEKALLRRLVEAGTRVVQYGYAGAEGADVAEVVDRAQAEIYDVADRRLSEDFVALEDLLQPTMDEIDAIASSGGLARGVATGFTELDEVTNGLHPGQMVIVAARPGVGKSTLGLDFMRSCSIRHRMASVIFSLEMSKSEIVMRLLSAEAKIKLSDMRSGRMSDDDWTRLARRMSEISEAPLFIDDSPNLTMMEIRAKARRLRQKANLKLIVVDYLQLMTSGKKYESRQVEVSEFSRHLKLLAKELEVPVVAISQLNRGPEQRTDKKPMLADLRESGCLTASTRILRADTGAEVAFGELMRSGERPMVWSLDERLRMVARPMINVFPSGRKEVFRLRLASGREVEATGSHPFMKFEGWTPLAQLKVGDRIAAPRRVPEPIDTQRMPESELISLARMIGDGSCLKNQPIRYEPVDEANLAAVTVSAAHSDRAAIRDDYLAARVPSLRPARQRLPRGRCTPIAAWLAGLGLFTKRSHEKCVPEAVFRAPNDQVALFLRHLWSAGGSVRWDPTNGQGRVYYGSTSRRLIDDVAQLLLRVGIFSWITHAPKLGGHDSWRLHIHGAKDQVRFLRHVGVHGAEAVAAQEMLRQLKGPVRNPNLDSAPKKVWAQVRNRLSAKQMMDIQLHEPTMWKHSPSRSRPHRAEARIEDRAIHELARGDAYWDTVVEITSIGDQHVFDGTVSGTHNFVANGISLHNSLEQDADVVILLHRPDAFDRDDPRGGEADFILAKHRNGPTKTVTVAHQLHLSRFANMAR

Cytochrome P450 2D6 = Cytochrome P450 2D6 (Homo sapiens, UniProt P10635);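 further: CYP2D6 member of a cytochrome P450 panel assay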
Cytochrome P450 2C9 = Cytochrome P450 2C9 (Homo sapiens, UniProt P11712)
[5] = Luminescence Cell-Based Dose Response HTS to Identify Activators of Luciferase Translation or Activity in H4 […] Cells. [Related pubchem assays: 1829 (Project Summary), 1814 (Primary HTS)]; format: functional
[6] = inhibitors of intracellular T. cruzi replication, confirmation, NIH3T3 host cells, beta-gal luminescence (AID 2044); format: functional, cell-based;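 further: intracellular parasites grown in NIH/3T3 mouse fibroblasts as host cells; luminescent beta-galactosidase reporter signal from transgenic T. cruzi replicating inside host cells; inhibitors lower the luminescence signal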
[7] = biological target: T3, Rac GTPase-activating protein 1 (Homo sapiens, UniProt Q9H0H5); test: MgcRacGAP GTPase-activating activity inhibitors, confirmation, biochemical, ADP Hunter fluorescence, primary and confirmatory (AID 624330); format: functional
T3 sequence (Q9H0H5 whole entry): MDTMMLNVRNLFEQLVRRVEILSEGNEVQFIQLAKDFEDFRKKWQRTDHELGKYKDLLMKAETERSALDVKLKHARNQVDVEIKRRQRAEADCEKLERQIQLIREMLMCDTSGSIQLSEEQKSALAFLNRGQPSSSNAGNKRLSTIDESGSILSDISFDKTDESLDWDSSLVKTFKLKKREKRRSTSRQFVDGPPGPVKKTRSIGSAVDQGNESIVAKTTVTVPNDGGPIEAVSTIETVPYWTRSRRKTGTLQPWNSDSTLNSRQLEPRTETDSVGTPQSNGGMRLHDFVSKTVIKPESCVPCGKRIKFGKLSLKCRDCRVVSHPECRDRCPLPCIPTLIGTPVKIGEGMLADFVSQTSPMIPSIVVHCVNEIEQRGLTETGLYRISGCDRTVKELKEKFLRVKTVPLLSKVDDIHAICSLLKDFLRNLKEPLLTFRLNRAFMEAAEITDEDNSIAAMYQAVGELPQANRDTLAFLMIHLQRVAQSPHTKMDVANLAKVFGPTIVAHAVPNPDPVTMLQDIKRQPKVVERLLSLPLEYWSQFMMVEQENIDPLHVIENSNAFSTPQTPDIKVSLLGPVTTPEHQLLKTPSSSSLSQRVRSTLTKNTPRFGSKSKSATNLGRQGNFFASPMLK

[8] = cytotoxicity toward NIH3T3 fibroblasts, dose response, counter-screen, cell-based, ATP luminescence, mouse fibroblasts (AID 2010); format: functional;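 further: cells exposed to compound for about 90 hours before reading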
Cytochrome P450 2C19 = Cytochrome P450 2C19 (Homo sapiens, UniProt P33261); test: Cytochrome panel assay with activity outcomes. Panel member name: p450-cyp2c19 Compounds with AC50 equal or less than 10 uM are considered active; format: functional; conditions: read-out: AC50
Cytochrome P450 1A2 = biological target: T4, Cytochrome P450 1A2 (Homo sapiens, UniProt P05177);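 further: PubChem cytochrome P450 panel assay, CYP1A2 panel member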
T4 sequence (P05177 whole entry): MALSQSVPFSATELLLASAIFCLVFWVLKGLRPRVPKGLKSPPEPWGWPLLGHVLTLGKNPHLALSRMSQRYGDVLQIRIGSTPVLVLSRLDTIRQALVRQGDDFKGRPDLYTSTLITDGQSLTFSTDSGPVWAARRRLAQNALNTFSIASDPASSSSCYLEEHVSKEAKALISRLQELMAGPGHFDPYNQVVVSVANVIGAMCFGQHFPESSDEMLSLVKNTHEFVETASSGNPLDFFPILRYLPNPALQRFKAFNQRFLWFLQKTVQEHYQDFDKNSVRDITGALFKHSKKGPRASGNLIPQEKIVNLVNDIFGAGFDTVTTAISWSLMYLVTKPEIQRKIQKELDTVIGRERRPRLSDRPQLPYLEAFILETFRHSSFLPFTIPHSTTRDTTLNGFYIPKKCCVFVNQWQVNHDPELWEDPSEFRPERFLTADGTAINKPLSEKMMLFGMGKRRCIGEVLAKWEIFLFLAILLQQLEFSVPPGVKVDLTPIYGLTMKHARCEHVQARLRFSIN

H4 = test: Luminescence Cell-Based Dose Response HTS to Identify Activators of 5'UTR Stem-Loop Driven Prion Protein mRNA Translation in H4 Neuroglioblastoma Cells. [Related pubchem assays: 1829 (Project Summary), 1814 (Primary HTS)]; format: functional; conditions: Homo sapiens

Cytochrome P450 2D6, sequence (P10635 whole entry): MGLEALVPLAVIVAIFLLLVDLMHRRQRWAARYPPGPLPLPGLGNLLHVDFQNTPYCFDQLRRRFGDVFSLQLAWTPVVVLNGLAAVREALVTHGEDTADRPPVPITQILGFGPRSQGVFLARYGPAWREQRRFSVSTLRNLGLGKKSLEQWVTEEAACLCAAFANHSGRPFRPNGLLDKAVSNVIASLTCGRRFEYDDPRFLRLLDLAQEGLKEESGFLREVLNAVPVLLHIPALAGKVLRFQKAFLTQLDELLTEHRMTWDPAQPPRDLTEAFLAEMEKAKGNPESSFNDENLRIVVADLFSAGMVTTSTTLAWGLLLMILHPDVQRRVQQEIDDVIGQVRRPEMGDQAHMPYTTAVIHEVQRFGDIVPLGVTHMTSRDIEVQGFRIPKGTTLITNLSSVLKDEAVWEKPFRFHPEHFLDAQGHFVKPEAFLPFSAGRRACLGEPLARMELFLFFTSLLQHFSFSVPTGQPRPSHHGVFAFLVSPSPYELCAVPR
Cytochrome P450 2C9, sequence (P11712 whole entry): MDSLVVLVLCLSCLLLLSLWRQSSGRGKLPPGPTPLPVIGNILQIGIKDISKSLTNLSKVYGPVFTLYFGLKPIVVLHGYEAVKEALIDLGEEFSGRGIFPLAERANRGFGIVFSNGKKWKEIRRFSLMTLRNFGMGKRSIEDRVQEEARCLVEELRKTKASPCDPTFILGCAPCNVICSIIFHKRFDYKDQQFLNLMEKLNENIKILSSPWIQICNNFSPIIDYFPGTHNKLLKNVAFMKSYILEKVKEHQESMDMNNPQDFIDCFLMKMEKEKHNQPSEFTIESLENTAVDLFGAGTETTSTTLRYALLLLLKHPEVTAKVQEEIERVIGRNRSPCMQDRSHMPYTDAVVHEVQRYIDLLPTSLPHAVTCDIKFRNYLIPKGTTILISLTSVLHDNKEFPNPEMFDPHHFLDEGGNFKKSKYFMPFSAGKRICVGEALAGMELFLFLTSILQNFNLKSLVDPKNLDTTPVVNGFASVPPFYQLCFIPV
Cytochrome P450 2C19, sequence (P33261 whole entry): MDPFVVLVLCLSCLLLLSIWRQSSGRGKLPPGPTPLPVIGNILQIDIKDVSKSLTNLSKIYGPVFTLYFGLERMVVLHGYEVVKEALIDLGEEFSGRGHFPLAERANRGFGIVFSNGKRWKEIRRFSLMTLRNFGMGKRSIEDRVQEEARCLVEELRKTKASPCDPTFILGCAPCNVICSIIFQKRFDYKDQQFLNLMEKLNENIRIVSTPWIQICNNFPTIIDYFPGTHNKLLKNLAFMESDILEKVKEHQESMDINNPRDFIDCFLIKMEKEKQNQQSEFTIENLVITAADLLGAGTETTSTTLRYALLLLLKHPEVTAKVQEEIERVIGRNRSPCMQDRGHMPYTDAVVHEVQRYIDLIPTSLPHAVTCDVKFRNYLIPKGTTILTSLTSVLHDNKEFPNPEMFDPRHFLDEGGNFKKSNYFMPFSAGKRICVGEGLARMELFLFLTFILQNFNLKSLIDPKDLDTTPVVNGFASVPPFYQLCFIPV

CCCn1c(N2CCN(CC(=O)c3c(C)n(C)c4ccc(OC)cc34)CC2)nc2c1c(=O)[nH]c(=O)n2C
EC50 [1]: > 120 µM (not active) | EC50 [2]: 13.5 µM (active) | EC50 [3]: 18.9 µM (active)

CN(C)CCSc1n[nH]c2nc3ccccc3c-2n1
EC50 (Protein RecA): 2.79 µM (active) | AC50 [4]: 7.37 µM (active)

Cn1c(=O)[nH]c(=O)c2c1nc(Sc1ncccn1)n2CCCc1ccccc1
EC50 [1]: 83.1 µM (active) | EC50 [2]: 18.4 µM (active) | EC50 [3]: 12.3 µM (active)

CCCCc1nc2[nH]nc(N)c2c2c1CCCC2
EC50 [1]: 12 µM (active) | EC50 [2]: > 120 µM (not active) | EC50 [3]: 12.5 µM (active)

O=C(Nc1ccc(Br)cc1)c1ccc(F)c(S(=O)(=O)N2CCN(c3ccccn3)CC2)c1
EC50 [1]: > 120 µM (not active) | EC50 [2]: 11.5 µM (active) | EC50 [3]: > 120 µM (not active)

Cc1[nH]c2ccc(-c3nnc(S)n3Cc3ccccc3)cc2c1C
EC50 [1]: > 120 µM (not active) | EC50 [2]: > 120 µM (not active) | EC50 [3]: > 120 µM (not active)

CCN(CC)CCn1cnc2c3c(OC)cccc3nc-2c1O
EC50 [1]: > 120 µM (not active) | EC50 [2]: > 120 µM (not active) | EC50 [3]: > 120 µM (not active)

NC(=O)c1ccccc1-c1nc(-n2ccnc2)c2ccccc2n1
AC50 (Cytochrome P450 2D6): 39.8 µM (inconclusive)

CCOC(=O)c1cc(C)sc1NC(=O)CSC1=NCCS1
EC50 (Protein RecA): 21.4 µM (active) | AC50 [4]: 12 µM (active)

COc1ccc(NC(=O)CN(C)C(=O)c2cccc(S(=O)(=O)N3CCCc4ccccc43)c2)cc1
EC50 [1]: 72.5 µM (active) | EC50 [2]: > 120 µM (not active) | EC50 [3]: > 120 µM (not active)

CCN(CC)CCN1C(=O)C(O)=C(C(C)=O)C1c1ccccc1[N+](=O)[O-] (stereo not given)
EC50 (Protein RecA): 3.71 µM (active) | AC50 [4]: 10 µM (active)

Cn1cnc([N+](=O)[O-])c1Oc1cccc2ccccc12
EC50 (Protein RecA): 13.2 µM (active) | AC50 [4]: 28.3 µM (active)

CCOc1ccc(NC(=O)NCCN2CCN(c3cccc(C)c3C)CC2)cc1
EC50 [1]: > 120 µM (not active) | EC50 [2]: > 120 µM (not active) | EC50 [3]: > 120 µM (not active)

CCOc1ccc(S(=O)(=O)N2CCC(C(=O)NCc3ccco3)CC2)cc1C
EC50 [1]: 37.6 µM (active) | EC50 [2]: > 120 µM (not active) | EC50 [3]: 17.5 µM (active)

Cc1c(Cl)cccc1N=C(S)N1CCN(S(=O)(=O)c2cccs2)CC1
EC50 [1]: > 120 µM (not active) | EC50 [2]: 13.1 µM (active) | EC50 [3]: > 120 µM (not active)

CCCCOP(=O)(OCCCC)C1(NS(=O)(=O)c2ccccc2)C=CC(=O)c2ccccc21 (stereo not given)
EC50 (Protein RecA): 1.82 µM (active) | AC50 [4]: 4.8 µM (active)

CC(C)C[C@H](NC(=O)c1nc[nH]c1C(=O)N[C@@H](CC(C)C)C(=O)OC(C)(C)C)C(=O)OC(C)(C)C
EC50 [1]: 8.87 µM (active) | EC50 [2]: 13.6 µM (active) | EC50 [3]: 16.8 µM (active)

COc1cccc(C(=O)/C=C/c2ccc(SC)cc2)c1
AC50 (Cytochrome P450 2D6): 14.1 µM (inconclusive) | AC50 (Cytochrome P450 2C9): 10 µM (inconclusive)

C[C@H]1CN(S(=O)(=O)c2cccc3cnccc23)CCN1
AC50 (Cytochrome P450 2D6): 39.8 µM (inconclusive)

COc1ccc(N2Cc3ccc(OC)c(OC)c3C2=O)cc1
EC50 [5]: 0.379 µM (active)

C=CCc1cc(Cl)ccc1OCCN(C)C
EC50 [6]: 0.559 µM (active) | IC50 [7]: 157 µM (active) | EC50 [8]: > 30 µM (not active)

CCn1cc(-c2nnnn2-c2ccc(Cl)cc2)c(=O)c2ccccc21
AC50 (Cytochrome P450 2D6): 11.2 µM (inconclusive)

COCC(C)NCc1cccc([N+](=O)[O-])c1 (stereo not given)
AC50 (Cytochrome P450 2D6): 14.1 µM (inconclusive) | AC50 (Cytochrome P450 2C9): 0.398 µM (inconclusive) | AC50 (Cytochrome P450 2C19): 11.2 µM (inconclusive)

O=C(Cn1c(C(F)(F)F)nc2ccccc21)c1ccccc1
AC50 (Cytochrome P450 2D6): 15.8 µM (inconclusive) | AC50 (Cytochrome P450 1A2): 25.1 µM (inconclusive)

COc1cccc(/N=C2\C(Cl)=C(O)OC2OC(=O)c2ccco2)c1 (stereo not given)
EC50 (Protein RecA): 14.6 µM (active) | AC50 [4]: 22.3 µM (active)

COc1cc(-c2nc3ccccn3c2/N=C/c2ccccc2)ccc1O
AC50 (Cytochrome P450 2D6): 28.2 µM (inconclusive)

Cc1ccc(O)c(/N=C/c2sc3ccccc3c2Cl)c1
IC50 [7]: 39.2 µM (active)

COc1cc(OC)cc(C(=O)Oc2ccc(/C=N/Nc3nc4ccccc4s3)cc2OC)c1
EC50 [5]: 5.84 µM (active) | EC50 (H4): 7.55 µM (active)

CC(C)c1ccc(/C=N/NC(=O)c2nnn(-c3nonc3N)c2CSC2=NCCS2)cc1
EC50 (Protein RecA): 8.86 µM (active) | AC50 [4]: 9.47 µM (active)
